Results as given in patent US11078228B2, “Ectonucleotidase inhibitors and methods of use thereof” (Calithera Biosciences, Inc., priority 2018, dated 2021).

molecular target: recombinant CD73 (Homo sapiens (Human), UniProt P21589); assay: Assay 2: Inhibition of the CD73 enzyme in vitro (0.05 nM CD73, 1 hour 37° C., Malachite Green); assay type: biochemical; conditions: 0.05 nM CD73, 50 μM AMP, 1 hour at 37° C.
Summary of the method: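 Free phosphate was quantified from absorbance at 630 nm against a phosphate standard curve. This was read 5 min after Malachite Green was added at room temperature. Beforehand, the recombinant soluble enzyme reacted for 1 hour at 37° C.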

Chain of recombinant CD73 (P21589 27-547): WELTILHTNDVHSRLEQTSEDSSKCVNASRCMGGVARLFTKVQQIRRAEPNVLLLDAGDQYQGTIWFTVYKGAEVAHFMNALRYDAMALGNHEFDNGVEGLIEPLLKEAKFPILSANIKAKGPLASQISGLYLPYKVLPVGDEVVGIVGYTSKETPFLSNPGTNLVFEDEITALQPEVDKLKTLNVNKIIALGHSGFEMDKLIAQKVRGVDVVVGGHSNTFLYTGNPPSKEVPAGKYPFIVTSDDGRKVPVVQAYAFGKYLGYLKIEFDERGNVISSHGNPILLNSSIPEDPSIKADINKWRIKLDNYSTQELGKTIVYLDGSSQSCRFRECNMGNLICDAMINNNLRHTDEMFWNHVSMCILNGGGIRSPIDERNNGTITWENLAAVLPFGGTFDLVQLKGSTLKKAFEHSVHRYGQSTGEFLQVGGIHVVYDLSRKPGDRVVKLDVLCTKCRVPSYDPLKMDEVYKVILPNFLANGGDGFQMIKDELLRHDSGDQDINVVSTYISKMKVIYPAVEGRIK

Compound	IC50
C#C[C@@]1(O)[C@@H](COC(Cc2ccc(N3CCCNC3=O)cc2)(C(=O)O)C(=O)O)O[C@@H](n2cnc3c(N)cc(Cl)nc32)[C@@H]1O [Example 157, 2-(((2R,3S,4R,5R)-5-(7-amino-5-chloro-3H-imidazo[4,5-b]pyridin-3-yl)-3-ethynyl-3,4-dihydroxytetrahydrofuran-2-yl)methoxy)-2-(4-(2-oxotetrahydropyrimidin-1(2H)-yl)benzyl)malonic acid]	0.37 nM
C#C[C@@]1(O)[C@@H](COC(Cc2ccccc2)(C(=O)O)C(=O)O)O[C@@H](n2cnc3c(N[C@H](C)CO)nc(Cl)nc32)[C@@H]1O [Example 98, 2-benzyl-2-(((2R,3S,4R,5R)-5-(2-chloro-6-(((R)-1-hydroxypropan-2-yl)amino)-9H-purin-9-yl)-3-ethynyl-3,4-dihydroxytetrahydrofuran-2-yl)methoxy)malonic acid]	2 nM
C#C[C@@]1(O)[C@@H](COC(Cc2ccccc2)(C(=O)O)C(=O)O)O[C@@H](n2cnc3c(NCC4(O)CCC4)nc(Cl)nc32)[C@@H]1O [Example 40, 2-benzyl-2-(((2R,3S,4R,5R)-5-(2-chloro-6-(((1-hydroxycyclobutyl)-methyl)amino)-9H-purin-9-yl)-3-ethynyl-3,4-dihydroxytetrahydrofuran-2-yl)methoxy)malonic acid]	3 nM
C#C[C@@]1(O)[C@@H](COC(Cc2ccccc2)(C(=O)O)C(=O)O)O[C@@H](n2cnc3c(N[C@@H](C)CC)nc(Cl)nc32)[C@@H]1O [Example 74, 2-benzyl-2-(((2R,3S,4R,5R)-5-(6-((S)-sec-butylamino)-2-chloro-9H-purin-9-yl)-3-ethynyl-3,4-dihydroxytetrahydrofuran-2-yl)methoxy)malonic acid]	2 nM
C#C[C@@]1(O)[C@@H](COC(Cc2ccc(-c3cccn(CCOC)c3=O)cc2)(C(=O)O)C(=O)O)O[C@@H](n2cnc3c(N)nc(Cl)nc32)[C@@H]1O [Example 146, 2-(((2R,3S,4R,5R)-5-(6-amino-2-chloro-9H-purin-9-yl)-3-ethynyl-3,4-dihydroxytetrahydrofuran-2-yl)methoxy)-2-(4-(1-(2-methoxyethyl)-2-oxo-1,2-dihydropyridin-3-yl)benzyl)malonic acid]	0.41 nM
C#C[C@@]1(O)[C@@H](COC(Cc2ccccc2)(C(=O)O)C(=O)O)O[C@@H](n2cnc3c(NCCO)nc(Cl)nc32)[C@@H]1O [Example 97, 2-benzyl-2-(((2R,3S,4R,5R)-5-(2-chloro-6-((2-hydroxyethyl)amino)-9H-purin-9-yl)-3-ethynyl-3,4-dihydroxytetrahydrofuran-2-yl)methoxy)malonic acid]	2 nM
C#C[C@@]1(O)[C@@H](COC(Cc2ccccc2)(C(=O)O)C(=O)O)O[C@@H](n2cnc3c(NCc4ccccc4Cl)nc(Cl)nc32)[C@@H]1O [Example 77, 2-benzyl-2-(((2R,3S,4R,5R)-5-(2-chloro-6-((2-chlorobenzyl)amino)-9H-purin-9-yl)-3-ethynyl-3,4-dihydroxytetrahydrofuran-2-yl)methoxy)malonic acid]	2 nM
C#C[C@@]1(O)[C@@H](COC(Cc2ccccc2)(C(=O)O)C(=O)O)O[C@@H](n2cnc3c(N(C)C)nc(Cl)nc32)[C@@H]1O [Example 89, 2-benzyl-2-(((2R,3S,4R,5R)-5-(2-chloro-6-(dimethylamino)-9H-purin-9-yl)-3-ethynyl-3,4-dihydroxytetrahydrofuran-2-yl)methoxy)malonic acid]	1.1 nM
C#C[C@@]1(O)[C@@H](COC(Cc2ccccc2)(C(=O)O)C(=O)O)O[C@@H](n2cnc3c(N[C@H]4CCc5ccccc54)nc(Cl)nc32)[C@@H]1O [Example 72, 2-benzyl-2-(((2R,3S,4R,5R)-5-(2-chloro-6-(((S)-2,3-dihydro-1H-inden-1-yl)amino)-9H-purin-9-yl)-3-ethynyl-3,4-dihydroxytetrahydrofuran-2-yl)methoxy)-malonic acid]	3 nM
C#C[C@@]1(O)[C@@H](COC(Cc2ccc(N3CCCNC3=O)cc2)(C(=O)O)C(=O)O)O[C@@H](n2cnc3c(NCc4ccc(OC)cc4OC)cc(Cl)nc32)[C@@H]1O [Example 156, 2-(((2R,3S,4R,5R)-5-(5-chloro-7-((2,4-dimethoxybenzyl)amino)-3H-imidazo[4,5-b]pyridin-3-yl)-3-ethynyl-3,4-dihydroxytetrahydrofuran-2-yl)methoxy)-2-(4-(2-oxotetrahydropyrimidin-1 (2H)-yl)benzyl)malonic acid]	0.14 nM
C#C[C@@]1(O)[C@@H](COC(Cc2nccs2)(C(=O)O)C(=O)O)O[C@@H](n2cnc3c(N)nc(Cl)nc32)[C@@H]1O [Example 142, 2-(((2R,3S,4R,5R)-5-(6-amino-2-chloro-9H-purin-9-yl)-3-ethynyl-3,4-dihydroxytetrahydrofuran-2-yl)methoxy)-2-(thiazol-2-ylmethyl)malonic acid]	5 nM
C#C[C@@]1(O)[C@@H](COC(Cc2ccc(-c3ccccc3)c(C(=O)O)c2)(C(=O)O)C(=O)O)O[C@@H](n2cnc3c(N)nc(Cl)nc32)[C@@H]1O [Example 13, 2-(((2R,3S,4R,5R)-5-(6-amino-2-chloro-9H-purin-9-yl)-3-ethynyl-3,4-dihydroxytetrahydrofuran-2-yl)methoxy)-2-((2-carboxy-[1,1′-biphenyl]-4-yl)methyl)malonic acid]	0.3 nM
C#C[C@@]1(O)[C@@H](COC(Cc2ccccc2)(C(=O)O)C(=O)O)O[C@@H](n2cnc3c(CCCC(=O)O)nc(Cl)nc32)[C@@H]1O [Example 163, 2-benzyl-2-(((2R,3S,4R,5R)-5-(6-(3-carboxypropyl)-2-chloro-9H-purin-9-yl)-3-ethynyl-3,4-dihydroxytetrahydrofuran-2-yl)methoxy)malonic acid]	> 100 nM
C#C[C@@]1(O)[C@@H](COC(Cc2ccccc2)(C(=O)O)C(=O)O)O[C@@H](n2cnc3c(N4CCC[C@H]4CO)nc(Cl)nc32)[C@@H]1O [Example 104, 2-benzyl-2-(((2R,3S,4R,5R)-5-(2-chloro-6-((S)-2-(hydroxymethyl)-pyrrolidin-1-yl)-9H-purin-9-yl)-3-ethynyl-3,4-dihydroxytetrahydrofuran-2-yl)methoxy)malonic acid]	2 nM
C#C[C@@]1(O)[C@@H](COC(Cc2ccccc2)(C(=O)O)C(=O)O)O[C@@H](n2cnc3c(NCCCO)nc(Cl)nc32)[C@@H]1O [Example 34, 2-benzyl-2-(((2R,3S,4R,5R)-5-(2-chloro-6-((3-hydroxypropyl)amino)-9H-purin-9-yl)-3-ethynyl-3,4-dihydroxytetrahydrofuran-2-yl)methoxy)malonic acid]	2 nM
C#C[C@@]1(O)[C@@H](CO[C@](Cc2ccccc2)(C(=O)O)c2cscn2)O[C@@H](n2cnc3c(NC(C)C)nc(Cl)nc32)[C@@H]1O (single isomer, unassigned) [Example 170]	8 nM
C#C[C@@]1(O)[C@@H](COC(Cc2ccc(N3CCCNC3=O)cc2)(C(=O)O)c2cscn2)O[C@@H](n2cnc3c(N)nc(Cl)nc32)[C@@H]1O (stereo partly drawn) [Example 175, 2-(((2R,3S,4R,5R)-5-(6-amino-2-chloro-9H-purin-9-yl)-3-ethynyl-3,4-dihydroxytetrahydrofuran-2-yl)methoxy)-3-(4-(2-oxotetrahydropyrimidin-1 (2H)-yl)phenyl)-2-(thiazol-4-yl)propanoic acid]	1 nM

Now from value to molecule:

IC50	Compound
16 nM	C#C[C@@]1(O)[C@@H](COC(Cc2ccc(N3CCCNC3=O)cc2)(C(=O)O)C(=O)O)O[C@@H](n2ccc(=O)[nH]c2=O)[C@@H]1O [Example 134, 2-(((2R,3S,4R,5R)-5-(2,4-dioxo-3,4-dihydropyrimidin-1(2H)-yl)-3-ethynyl-3,4-dihydroxytetrahydrofuran-2-yl)methoxy)-2-(4-(2-oxotetrahydropyrimidin-1 (2H)-yl)benzyl)malonic acid]
1 nM	CC#C[C@@]1(O)[C@@H](COC(Cc2ccccc2)(C(=O)O)C(=O)O)O[C@@H](n2cnc3c(N)nc(Cl)nc32)[C@@H]1O [Compound 3, 2-(((2R,3S,4R,5R)-5-(6-amino-2-chloro-9H-purin-9-yl)-3,4-dihydroxy-3-(prop-1-yn-1-yl)tetrahydrofuran-2-yl)methoxy)-2-benzylmalonic acid]
1.6 nM	C#C[C@@]1(O)[C@@H](COC(Cc2ccccc2)(C(=O)O)C(=O)O)O[C@@H](n2cnc3ccc(Cl)nc32)[C@@H]1O [Example 58, 2-benzyl-2-(((2R,3S,4R,5R)-5-(5-chloro-3H-imidazo[4,5-b]pyridin-3-yl)-3-ethynyl-3,4-dihydroxytetrahydrofuran-2-yl)methoxy)malonic acid]
8 nM	C#C[C@@]1(O)[C@@H](COC(Cc2ccncc2)(C(=O)O)C(=O)O)O[C@@H](n2cnc3c(N)nc(Cl)nc32)[C@@H]1O [Compound 7, 2-(((2R,3S,4R,5R)-5-(6-amino-2-chloro-9H-purin-9-yl)-3-ethynyl-3,4-dihydroxytetrahydrofuran-2-yl)methoxy)-2-(pyridin-4-ylmethyl)malonic acid]
1 nM	C#C[C@@]1(O)[C@@H](COC(Cc2ccccc2)(C(=O)O)C(=O)O)O[C@@H](n2cnc3c(NCC)nc(Cl)nc32)[C@@H]1O [Example 73, 2-benzyl-2-(((2R,3S,4R,5R)-5-(2-chloro-6-(ethylamino)-9H-purin-9-yl)-3-ethynyl-3,4-dihydroxytetrahydrofuran-2-yl)methoxy)malonic acid]
4610 nM	C#C[C@@]1(O)[C@@H](COC(C(=O)O)S(=O)(=O)c2ccccc2)O[C@@H](n2cnc3c(N4CCOCC4)nc(Cl)nc32)[C@@H]1O (stereo partly drawn) [Example 119, 2-(((2R,3S,4R,5R)-5-(2-chloro-6-morpholino-9H-purin-9-yl)-3-ethynyl-3,4-dihydroxytetrahydrofuran-2-yl)methoxy)-2-(phenylsulfonyl)acetic acid]
1 nM	C#C[C@@]1(O)[C@@H](COC(Cc2ccc(N3CCCC3)cc2)(C(=O)O)C(=O)O)O[C@@H](n2cnc3c(N)nc(Cl)nc32)[C@@H]1O [Example 144, 2-(((2R,3S,4R,5R)-5-(6-amino-2-chloro-9H-purin-9-yl)-3-ethynyl-3,4-dihydroxytetrahydrofuran-2-yl)methoxy)-2-(4-(pyrrolidin-1-yl)benzyl)malonic acid]
